Key:
[1] = tested on: A549; experiment: Antiproliferative activity against human A549 cells assessed as inhibition of cell growth measured after 72 hrs by MTT assay; assay type: functional, cell-based; details: A549, 72 h
[2] = tested on: Epidermal growth factor receptor (Homo sapiens), P00533 [UNDEFINED MUTATION]; details: dose 100.0 nM
[3] = tested on: NCI-H1975; experiment: Antiproliferative activity against human NCI-H1975 cells assessed as inhibition of cell growth measured after 72 hrs by MTT assay; assay type: functional, cell-based; details: NCI-H1975, 72 h
[4] = tested on: Epidermal growth factor receptor (Homo sapiens), P00533 [UNDEFINED MUTATION]; details: dose 30.0 nM
[5] = tested on: HCC827; experiment: Antiproliferative activity against human HCC827 cells assessed as inhibition of cell growth measured after 72 hrs by MTT assay; assay type: functional, cell-based; details: HCC827, 72 h

Sequence of Epidermal growth factor receptor (Homo sapiens), P00533 [UNDEFINED MUTATION] (P00533 whole entry, looked up, stated change not applied): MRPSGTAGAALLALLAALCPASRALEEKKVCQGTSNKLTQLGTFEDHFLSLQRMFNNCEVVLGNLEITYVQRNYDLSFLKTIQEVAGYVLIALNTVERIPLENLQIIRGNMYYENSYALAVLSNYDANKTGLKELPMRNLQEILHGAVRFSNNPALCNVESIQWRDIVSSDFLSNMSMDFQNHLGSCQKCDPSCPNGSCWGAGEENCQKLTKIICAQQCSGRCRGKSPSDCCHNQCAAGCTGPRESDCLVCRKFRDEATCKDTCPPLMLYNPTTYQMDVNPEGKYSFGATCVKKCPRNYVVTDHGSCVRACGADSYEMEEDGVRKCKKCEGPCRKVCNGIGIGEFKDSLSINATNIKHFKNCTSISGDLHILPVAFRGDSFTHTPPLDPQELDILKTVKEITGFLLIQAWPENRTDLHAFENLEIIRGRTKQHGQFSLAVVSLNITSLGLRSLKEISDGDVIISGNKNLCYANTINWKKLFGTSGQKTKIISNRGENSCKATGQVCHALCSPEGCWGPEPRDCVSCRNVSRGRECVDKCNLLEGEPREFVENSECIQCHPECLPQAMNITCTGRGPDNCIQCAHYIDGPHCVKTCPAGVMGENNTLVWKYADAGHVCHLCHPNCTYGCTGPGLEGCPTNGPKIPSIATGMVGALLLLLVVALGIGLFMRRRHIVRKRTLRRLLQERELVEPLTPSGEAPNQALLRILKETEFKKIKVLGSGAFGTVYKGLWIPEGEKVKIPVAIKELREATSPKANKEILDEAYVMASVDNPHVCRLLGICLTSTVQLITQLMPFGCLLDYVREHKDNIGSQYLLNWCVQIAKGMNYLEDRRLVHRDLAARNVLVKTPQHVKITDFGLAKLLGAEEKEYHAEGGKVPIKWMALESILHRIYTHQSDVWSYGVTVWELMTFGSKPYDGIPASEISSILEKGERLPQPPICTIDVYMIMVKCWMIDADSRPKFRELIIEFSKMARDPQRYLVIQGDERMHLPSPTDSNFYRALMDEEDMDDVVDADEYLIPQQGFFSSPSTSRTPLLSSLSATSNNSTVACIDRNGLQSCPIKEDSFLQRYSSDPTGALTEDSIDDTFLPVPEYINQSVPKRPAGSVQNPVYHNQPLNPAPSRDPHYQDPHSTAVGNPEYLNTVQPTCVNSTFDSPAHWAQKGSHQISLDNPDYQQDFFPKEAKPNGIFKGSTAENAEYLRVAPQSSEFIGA

Compound | IC50 [1] [nM] | inhibition [2] [%] | IC50 [3] [nM] | inhibition [4] [%] | IC50 [5] [nM]
O=C(NO)c1ccsc1Nc1ccnc(Nc2ccc(N3CCOCC3)cc2)n1 | 5630 | 50.2 | 542 | 15.9 | 463
COc1cc(N2CCC(N3CCN(C)CC3)CC2)ccc1Nc1ncc(Cl)c(Nc2ccccc2P(C)(C)=O)n1 [BRIGATINIB] | 371 | 89.7 | 424 | 64.1 | 3
Cc1cnc(Nc2ccc(N3CCOCC3)cc2)nc1Nc1ccsc1C(=O)NO | 169 | 71.2 | 474 | 42.1 | 55
O=C(NO)c1ccsc1Nc1nc(Nc2cccc(N3CCOCC3)c2)ncc1Cl | 828 | 66.8 | 788 | 23.9 | 462
O=C(NO)c1sc2ccccc2c1Nc1nc(Nc2ccc(N3CCOCC3)cc2)ncc1Br | 4850 | 4.79 | 2400 | 0.17 | 4340
O=C(NO)c1ccsc1Nc1nc(Nc2ccc(N3CCOCC3)cc2)ncc1C(F)(F)F | 18600 | 32.7 | 1670 | 18.2 | 1700

Further lines, results first:

IC50 [1] [nM] | inhibition [2] [%] | IC50 [3] [nM] | inhibition [4] [%] | IC50 [5] [nM] | Compound
557 | 66 | 249 | 36.1 | 70 | O=C(NO)c1ccsc1Nc1nc(Nc2ccc(OCCN3CCOCC3)cc2)ncc1Cl
371 | 70.9 | 331 | 44.1 | 33 | O=C(NO)c1ccsc1Nc1nc(Nc2ccc(CN3CCOCC3)cc2)ncc1Cl
718 | 51.3 | 247 | 19.7 | 346 | O=C(NO)c1ccsc1Nc1nc(Nc2ccc(OCCN3CCOCC3)cc2)ncc1Br
114 | 57.2 | 347 | 21.9 | 230 | Cc1cnc(Nc2ccc(N3CCOCC3)cc2)nc1Nc1sccc1C(=O)NO
650 | 65.5 | 276 | 32.8 | 37 | O=C(NO)c1ccsc1Nc1nc(Nc2ccc(CCN3CCOCC3)cc2)ncc1Br
